Measurements published in article PMC10470491, “Modulation of the functional interfaces between retroviral intasomes and the human nucleosome” (mBio, 2023).
“Also recorded” adds a separate entry of the source. *1 amine or outer side, *2 acyl side, *3 side chain or, on linkers, in order; H or OH if unused. Where a SMILES comes first, the peptide text is derived from it. Bridges are numbered along the chain shown (N, C = ends). Roman numbers before positions name the chains, in order. [ ]: non-standard residue; d: D form. Actinocin(9to1) = Cc1c2oc3c(C)ccc(C(=O)[*:1])c3nc-2c(C(=O)[*:2])c(N)c1=O; NMeV = CN[C@H](C(=O)O)C(C)C; Sar = CNCC(=O)O

What was measured:
[1] = tested on: PFV intasome/nucleosome complex; assay: AlphaLISA PFV intasome/nucleosome interaction assay; assay type: binding, prototype foamy virus (PFV); human mononucleosome; settings: for selection as intasome/nucleosome modulator in the OncoSET screen: 25 µM; for inhibition of intasome/nucleosome association in AS / IC50: increasing drug concentrations; for IC50: intasome/nucleosome AS assay, Fig. 3E
Protocol: AlphaLISA is a technology particularly suitable for bimolecular inhibitor screening assays using protein-protein interactions with purified recombinant proteins. The AlphaLISA assay development was performed in 96-well 12 area Alphaplate (reference 6052340, PerkinElmer, Waltham, MA, USA) with a final reaction volume of 40 µL. Cross-titration experiments of biotinylated MN (0–50 nM) against DIG-intasome (0–100 nM) were carried out to establish optimal assay concentrations for the binding assay. Ten microliters of each protein were diluted in the binding buffer 50 mM BisTris-propane pH 7, 100 mM NaCl, 0.1% (v/v) Tween-20, 0.1% (w/v) BSA, and 1 mM dithiothreitol. The plate was incubated at RT for 2 h in rotation. Ten microliters of anti-DIG acceptor beads (PerkinElmer, reference AL113) were then added, and after 1 h of incubation at RT with rotation, 10 µL of streptavidin […] (Perkin Elmer, reference 6760002) was mixed to the wells. This established a final concentration of 20 µg/mL for each bead. The plate was then incubated for 1 h at RT in the dark before the AlphaLISA signal was detected using an EnSpire Multimode Plate Reader (PerkinElmer). Negative control with binding buffer or only with one of the complexes was used to control the assay quality. Data were analyzed with GraphPad Prism 5.01 software. To evaluate tolerance for DMSO, the assay was performed as described above with an addition of 0.15–20% (v/v) of DMSO during the binding step. For the competition experiment, increasing concentrations of untagged intasome were titrated out in the 1-nM DIG-intasome/biotinylated nucleosome interaction assay.
For the AlphaLISA screening assay with the NIH OncoSET library, the binding conditions were optimized for use in 384-well plate (Optiplate, reference 6007290, PerkinElmer) with the same concentrations for complexes and beads in a final reaction volume of 20.5 µL (2.5% DMSO final concentration). The screening was first carried out with 25 µM of each compound pre-incubated for 1 h with 1 nM intasome/nucleosome complexes. Compounds were selected as inducing at least 50% decrease of the AlphaLISA signal control condition, and their inhibitory effect was further tested using dose-response curves. For compounds validation, counter select assay was performed using a short DNA fragment carrying a biotin and a DIG tag on each side. The AlphaLISA signal was monitoring using increasing concentrations of the double-tagged DNA, and the selected compounds were tested in optimized conditions at 10 µM. Any compound that causes decreased signal means that it interferes with AlphaLISA readout, and therefore, it is not relevant to this assay.

mononucleosome (MN) = assay: histone eviction assay (EMSA / SDS-PAGE); assay type: biochemical, human; settings: 10 µM or increasing concentrations
PFV intasome [2] = molecular target: T1, PFV intasome (Human spumaretrovirus, UniProt P14350); assay: biochemical; assay type: biochemical, prototype foamy virus (PFV); parameters: Briefly, PFV IN and its cognate vDNA were mixed, and assembled intasomes were purified by size exclusion chromatography; octamers produced in E. coli; settings: 30 nM FITC PFV intasome, MN, drugs 0–25 µM
Protocol: Integration assays using purified assembled intasomes were performed as followed: either 100 ng of naked DNA or 100 ng of DNA assembled on 100 ng of histone octamers (24 nM final concentration) was incubated with 30 nM final concentration of purified intasome in 100 mM NaCl, 20 mM BTP pH 7, 12.5 mM MgSO4 (for PFV intasome), or in 20 mM HEPES pH 7, 7.5% DMSO, 8% PEG, 10 mM MgCl2, 20 µM ZnCl2, 100 mM NaCl, 5 mM DTT final concentration (for HIV-1 intasome) in a final volume of 40 µL. The mix was then incubated at 37°C for 15 min and 1 h, respectively. Then, reaction was stopped by the addition of 5.5 µL of a mix containing 5% SDS and 0.25 M EDTA and deproteinized with proteinase K (Promega) for 1 h at 37°C. Nucleic acids were then precipitated with 150 µL of ethanol overnight at −20°C. Samples were then spun at top speed for 1 h at 4°C, and the pellets were dried and then resuspended with DNA loading buffer. Integration products were separated on an 8% native polyacrylamide gel.

[3] = tested on: HIV-1 intasome (vDNA•IN•LEDGF/p75); assay: in vitro HIV-1 concerted integration onto mononucleosome; assay type: biochemical; settings: MN
PFV intasome [4] = molecular target: T1, PFV intasome; assay: in vitro PFV integration into naked plasmid pBSK-601-Zeo DNA; assay type: biochemical, prototype foamy virus (PFV); parameters: Briefly, PFV IN and its cognate vDNA were mixed, and assembled intasomes were purified by size exclusion chromatography; made in house; settings: 10 µM
Protocol: MNs were assembled as previously described for chromatin assembly ([7], [8]). Briefly, 5 µg of biotinylated 147 bp Widom fragment (TEBU-bio) were mixed with an excess of 10 µg of human native recombinant octamers produced in E. coli [purchased from the “Histone Source” Protein Expression and Purification (PEP) facility from the Colorado State University, https://histonesource-colostate.nbsstore.net] in Tris-HCl pH 7.7 and 2 M NaCl in 100 µl final volume. Salt dialysis was then performed to decrease the salt concentration to 0 using slide-A-Lyzer MINI dialysis device, 7 k MWCO (Fisher Scientific). Assembly was checked by electro-mobility shift assay (EMSA) on 8% native PAGE stained with SYBR safe and SDS-PAGE stained with instant blue. Eviction assays of the assembled nucleosome were incubated with increasing concentrations of drugs and then analyzed by EMSA or SDS-PAGE of the supernatant after their capture using streptavidin beads (MyONE T1 invitrogen). Naked DNA substrates (pBSK-601-Zeo vector plasmid containing 601 Widom repetitions or 147 bp 601 DNA fragment) used for comparative integration assays were treated as for nucleosome assembly. […]

[5] = OncoSET screen, 25 µM drug, 1 nM of each partner

COc1cccc2c1C(=O)c1c(O)c3c(c(O)c1C2=O)C[C@@](O)(C(=O)CO)C[C@@H]3O[C@H]1C[C@H](N)[C@@H](O)[C@H](C)O1 [epirubicin]
selection as intasome/nucleosome modulator in the OncoSET screen ([1]; OncoSET screen): not selected as an intasome/nucleosome modulator; also recorded: inefficient in inhibiting the intasome/nucleosome complex

C=CC(=O)Nc1cc(Nc2nccc(-c3cn(C)c4ccccc34)n2)c(OC)cc1N(C)CCN(C)C [Osimertinib, osimertinib]
decrease in the AS signal [1, 5]: at least 50% | inhibition of intasome/nucleosome association in AS [1]: no inhibition in the concentration range used | decrease in the AS signal ([1]; retest at 10 µM, MN): 30–40%

COc1cccc2c1C(=O)c1c(O)c3c(c(O)c1C2=O)C[C@@](O)(C(=O)CO)C[C@@H]3O[C@H]1C[C@H](N)[C@H](O[C@@H]2CCCCO2)[C@H](C)O1 [Pirarubicin, pirarubicin]
histone eviction / MN dissociation (mononucleosome (MN)): full shift of the nucleosomal DNA in addition to a strong MN dissociation | decrease in the AS signal [1, 5]: at least 50% | IC50 [1]: 630 ± 20 nM | effect on the intasome/nucleosome AS signal ([1]; retest at 10 µM, MN): strong inhibitory effect | inhibition of PFV integration into MNs (PFV intasome [2]): able to inhibit PFV integration into MNs

CC(=O)[C@]1(O)Cc2c(O)c3c(c(O)c2[C@@H](O[C@H]2C[C@H](N)[C@H](O)[C@H](C)O2)C1)C(=O)c1ccccc1C3=O [Idarubicin, idarubicin]
histone eviction / MN dissociation (mononucleosome (MN)): strong displacement of histones from the MN | decrease in the AS signal [1, 5]: at least 50% | IC50 [1]: 450 ± 22 nM | effect on the intasome/nucleosome AS signal ([1]; retest at 10 µM, MN): strong inhibitory effect | inhibition of PFV integration into MNs (PFV intasome [2]): able to inhibit PFV integration into MNs

CCCCC(=O)OCC(=O)[C@]1(O)Cc2c(O)c3c(c(O)c2[C@@H](O[C@H]2C[C@H](NC(=O)C(F)(F)F)[C@H](O)[C@H](C)O2)C1)C(=O)c1c(OC)cccc1C3=O [valrubicin]
selection as intasome/nucleosome modulator in the OncoSET screen ([1]; OncoSET screen): inefficiency

COc1cccc2c1C(=O)c1c(O)c3c(c(O)c1C2=O)C[C@@](O)(C(=O)CO)C[C@@H]3O [Doxorubicinone, doxorubicinone]
histone eviction / MN dissociation (mononucleosome (MN)): could not dissociate the MN | inhibition of in vitro HIV-1 integration [3]: inefficient | inhibition of PFV integration into MNs (PFV intasome [2]): inefficient in inhibiting the in vitro integration

O=C1c2c(O)ccc(O)c2C(=O)c2c(NCCNCCO)ccc(NCCNCCO)c21 [Mitoxantrone, mitoxantrone]
decrease in the AS signal [1, 5]: at least 50% | IC50 [1]: 380 ± 50 nM | effect on the intasome/nucleosome AS signal ([1]; retest at 10 µM, MN): strong inhibitory effect | inhibition of PFV integration into MNs (PFV intasome [2]): did not show any inhibitory effect on integration | inhibition of PFV integration into plasmid pBSK-601-Zeo DNA (PFV intasome [4]): remained inefficient

O=C1CCC(N2C(=O)c3ccccc3C2=O)C(=O)N1 (centres unmarked) [thalidomide]
inhibition of PFV integration into MNs (PFV intasome [2]): did not show any effect

CC[C@@]1(O)C(=O)OCc2c1cc1n(c2=O)Cc2cc3c(CN(C)C)c(O)ccc3nc2-1 [topotecan]
inhibition of PFV integration into MNs (PFV intasome [2]): did not show any effect

COc1cccc2c1C(=O)c1c(O)c3c(c(O)c1C2=O)C[C@@](O)(C(C)=O)C[C@@H]3O[C@H]1C[C@H](N)[C@H](O)[C@H](C)O1 [Daunorubicin, daunorubicin]
histone eviction / MN dissociation (mononucleosome (MN)): strong displacement of histones from the MN | decrease in the AS signal [1, 5]: at least 50% | IC50 [1]: 3240 ± 18 nM | effect on the intasome/nucleosome AS signal ([1]; retest at 10 µM, MN): strong inhibitory effect | inhibition of PFV integration into MNs (PFV intasome [2]): able to inhibit PFV integration into MNs

Cc1c2oc3c(C)ccc(C(=O)N[C@@H]4C(=O)N[C@H](C(C)C)C(=O)N5CCC[C@H]5C(=O)N(C)CC(=O)N(C)[C@@H](C(C)C)C(=O)O[C@@H]4C)c3nc-2c(C(=O)N[C@@H]2C(=O)N[C@H](C(C)C)C(=O)N3CCC[C@H]3C(=O)N(C)CC(=O)N(C)[C@@H](C(C)C)C(=O)O[C@@H]2C)c(N)c1=O [actinomycin D] (I: T[dV]P[Sar][NMeV] / II: T[dV]P[Sar][NMeV]; ester I:1-I:C, II:1-II:C; linker I:N-II:N via Actinocin(9to1))
selection as intasome/nucleosome modulator in the OncoSET screen ([1]; OncoSET screen): lack of effect

N.N.[Cl][Pt][Cl] [cisplatin]
inhibition of PFV integration into MNs (PFV intasome [2]): only a slight inhibition of integration into nucleosome

CC/C(=C(\c1ccccc1)c1ccc(OCCN(C)C)cc1)c1ccccc1 [Tamoxifen, tamoxifen]
inhibition of intasome/nucleosome association in AS [1]: only a slight inhibition effect | inhibition of PFV integration into MNs (PFV intasome [2]): inefficient in inhibiting integration | inhibition of PFV integration into plasmid pBSK-601-Zeo DNA (PFV intasome [4]): remained inefficient
